Experimental data: patent US20220243160A1, “Method and Apparatus for Interrogating Biological Systems” (Arizona Board of Regents on Behalf of the University of …, priority 2019, published 2022)
pIC50: −log10 of the molar value.

What was measured:
Type in all cases: cell-based
[1] = system: ovarian cancer cells cultivated in a 2D cell arrangement; experiment: Clonogenic assay for radiosensitizing effect, 2D culture; details: 0.7 μM 1 h before irradiation at 0, 2, 4 or 6 Gy
Description: The radiosensitizing effect was assessed with a clonogenic assay. […] The medium was removed right after irradiation and replaced by a drug-free medium, changed twice a week for the rest of the experiment. Clonogenic assay was stopped when colonies containing at least 50 cells were observed under the microscope. Error bar represent mean±SEM from 3 independent experiments with at least 2 replicates each.

[2] = system: SKOV3 ovarian cancer cells; experiment: MTT antiproliferative assay on SKOV3 cells in monolayer (2D); details: for pIC50: SKOV3 cells cultured in monolayer, 48 h exposure
Monolayer SKOV3 cells = experiment: γ-H2AX / 53BP1 foci immunofluorescence after irradiation; details: 0.7 μM 1 h before irradiation at 0 or 2 Gy, 6 h, 24 h after irradiation
Description: Cells were seeded on coverslip at a density of 5×10^4 per mL and exposed to DMSO or WD at a concentration of 0.7 μM 1 h before being irradiated at 0 or 2 Gy. The medium was removed and replaced by a drug-free medium immediately after irradiation. FIG. 6A. Images of immunofluorescence elicited in SKOV3 cells 1 h, 6 h and 24 h after irradiation taken using an Epifluorescence microscope at a magnification of 63×. […] Scale bar=10 μm. […] Values are normalized with non-irradiated cells, exposed to DMSO or WD respectively. […] Values are normalized with non-irradiated cells, exposed to DMSO or WD respectively. All the data are presented as the mean±SEM of at least 60 nuclei. *Significant differences as determined by Student's t-test (p<0.05).

SKOV3 spheroids = experiment: MTT antiproliferative assay on SKOV3 spheroids; details: for antiproliferative effect: SKOV3 spheroids; for pIC50: SKOV3 spheroids (5 days formation), 48 h exposure
Description: Twenty thousand cells were seeded in an ultra-low affinity round bottom 96 well plates and 5 days were allowed for spheroids formation. […] Error bars represent mean±SEM from 3 independent experiments of at least 6 replicates each.

[3] = system: spheroids of SKOV3 ovarian cancer cells; experiment: Spheroid volume growth after drug and irradiation; details: 0.7 μM 1 h before irradiation at 0 Gy or 4 Gy, followed 19 days
Description: FIG. 8 includes a schematic overview of experiment. Cells were plated in an ultra-low affinity 96 well plate with a round bottom and allowed to form spheroids for 5 days. […] The medium containing drug was replaced by a drug-free medium after 4 days, then freshly changed twice a week for the rest of the experiment. Diameter of each spheroid was measured two or three times a week for 19 days with Micrometrics SE Premium software. Spheroid volume growth over time. Volume were normalized to day 0. Error bars represent mean±SEM for at least 5 replicates.

NHEJ DNA repair pathway = experiment: Western blot of DNA repair proteins after irradiation; details: SKOV3 2D, 0.7 μM 1 h before irradiation at 0 or 2 Gy
Description: Western blot showing expression level of ATM, S1981pATM, DNA-PKcs, S2056pDNA-PKcs, XRCC4, RPA70 and RAD51 in SKOV3 cells cultivated in 2D. Cells were exposed to DMSO or WD at a concentration of 0.7 μM 1 h before undergoing an irradiation at 0 or 2 Gy. Proteins within cells were extracted 1 h, 6 h or 24 h after irradiation. A total of 5 μg of proteins was loaded. Bands intensities were quantified using ImageJ, normalized with GAPDH. Numbers represent expression level compared to non-irradiated cells. NI=Non-irradiated samples.

Row | SMILES | radiosensitizing effect [1] | cytotoxic effect ([2]; SKOV3 2D, 0.156 to 80 μM, 48 h) | pIC50 [2] | DNA DSBs (γ-H2AX and 53BP1 foci) versus DMSO (Monolayer SKOV3 cells) | antiproliferative effect (SKOV3 spheroids) | pIC50 (SKOV3 spheroids) | radiosensitization of spheroids (normalized volume) [3] | mechanism of radiosensitization (expression of ATM, pATM, DNA-PKcs, pDNA-PKcs, XRCC4, RPA70, RAD51) (NHEJ DNA repair pathway)
1 | CC1=C(C)C(=O)O[C@@H]([C@](C)(O)[C@H]2CC[C@H]3[C@@H]4C[C@H]5O[C@]56[C@@H](O)C=CC(=O)[C@]6(C)[C@H]4CC[C@]23C)C1 [WD, withanolide D] | have a radiosensitizing effect | dose-dependent cytotoxic effect | 5.38 | more DNA DSBs over 24 h than those exposed to DMSO | significant antiproliferative effect | 4.80 | do not radiosensitize | inhibiting the NHEJ DNA repair pathway
2 | CC1=C(CO)C(=O)O[C@@H]([C@@H](C)[C@H]2CC[C@H]3[C@@H]4C[C@H]5O[C@]56[C@@H](O)C=CC(=O)[C@]6(C)[C@H]4CC[C@]23C)C1 [WFA, withaferin A] | have a radiosensitizing effect | – | 5.36 | – | significant antiproliferative effect | 4.64 | do not radiosensitize | –
